Source: patent US20230414826A1, “FIBRIN HYDROGELS” (Mayo Foundation for Medical Education and Research, priority 2020, published 2023)

Target: T1, fibrinogen (Evicel) (Homo sapiens, UniProt P02671+P02675+P02679)
T1 construct: purchased Ethicon (Evicel Biologically Active Component 2)
T1 sequence (P02671 20-629 limits assumed): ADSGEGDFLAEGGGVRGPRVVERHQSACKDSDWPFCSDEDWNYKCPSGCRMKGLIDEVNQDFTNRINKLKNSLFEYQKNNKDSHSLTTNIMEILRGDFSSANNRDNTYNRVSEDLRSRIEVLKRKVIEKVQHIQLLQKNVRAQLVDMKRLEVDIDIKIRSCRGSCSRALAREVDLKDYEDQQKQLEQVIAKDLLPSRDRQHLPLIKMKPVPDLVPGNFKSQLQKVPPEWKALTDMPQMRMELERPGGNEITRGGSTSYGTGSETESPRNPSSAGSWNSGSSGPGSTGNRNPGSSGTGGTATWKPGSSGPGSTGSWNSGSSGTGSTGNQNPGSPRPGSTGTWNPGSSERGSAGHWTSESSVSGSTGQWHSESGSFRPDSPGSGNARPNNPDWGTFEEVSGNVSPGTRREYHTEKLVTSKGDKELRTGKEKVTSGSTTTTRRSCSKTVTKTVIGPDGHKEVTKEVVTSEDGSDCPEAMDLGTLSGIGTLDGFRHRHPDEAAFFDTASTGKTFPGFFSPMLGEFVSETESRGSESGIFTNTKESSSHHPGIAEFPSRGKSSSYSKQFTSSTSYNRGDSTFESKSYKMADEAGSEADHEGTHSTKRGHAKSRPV
T1 sequence (P02675 31-491): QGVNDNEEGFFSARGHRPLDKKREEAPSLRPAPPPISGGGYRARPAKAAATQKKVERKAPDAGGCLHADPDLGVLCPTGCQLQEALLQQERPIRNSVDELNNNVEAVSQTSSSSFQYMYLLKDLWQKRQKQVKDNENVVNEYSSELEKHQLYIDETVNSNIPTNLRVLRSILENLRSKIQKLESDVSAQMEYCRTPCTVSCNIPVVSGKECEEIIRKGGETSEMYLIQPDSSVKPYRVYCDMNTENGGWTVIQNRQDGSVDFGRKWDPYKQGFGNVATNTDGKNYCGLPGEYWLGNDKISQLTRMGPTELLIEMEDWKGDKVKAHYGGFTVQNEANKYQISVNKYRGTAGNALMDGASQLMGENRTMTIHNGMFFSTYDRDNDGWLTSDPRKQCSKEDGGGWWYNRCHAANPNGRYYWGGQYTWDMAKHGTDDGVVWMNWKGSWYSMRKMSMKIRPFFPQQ
T1 sequence (P02679 27-433 limits assumed): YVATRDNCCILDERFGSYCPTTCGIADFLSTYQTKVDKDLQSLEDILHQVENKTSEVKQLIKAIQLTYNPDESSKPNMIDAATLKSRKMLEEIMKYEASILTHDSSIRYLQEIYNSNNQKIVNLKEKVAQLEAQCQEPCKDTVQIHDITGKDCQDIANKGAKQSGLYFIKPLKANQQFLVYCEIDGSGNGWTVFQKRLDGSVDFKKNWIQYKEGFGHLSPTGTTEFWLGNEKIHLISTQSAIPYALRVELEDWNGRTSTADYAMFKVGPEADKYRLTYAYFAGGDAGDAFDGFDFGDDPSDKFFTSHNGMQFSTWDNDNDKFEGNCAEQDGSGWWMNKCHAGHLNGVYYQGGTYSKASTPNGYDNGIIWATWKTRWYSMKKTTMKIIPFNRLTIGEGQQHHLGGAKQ
Assay: Fibrinogen clotting assay with coagulation analyzer (Clauss method), tissue glue fibrinogen
Assay type: biochemical
Details: for gelation time (average clotting time): 4.58 mM additive in PBS, fixed 1:20 dilution of fibrinogen (Evicel); for clot time: dye 0.1% w/v; for Effect on Clotting Time: screen, multiple concentrations up to 4.58 mM

[1] = 0.01% (w/v) dye, 1:20 dilution of fibrinogen, n=10
[2] = 0.05% (w/v) dye, 1:20 dilution of fibrinogen, n=10
[3] = 0.10% (w/v) dye, 1:20 dilution of fibrinogen, n=10

Row | SMILES | gelation time (average clotting time) (n=10) [s] | clotting time [1] [s] | clotting time [2] [s] | clotting time [3] [s] | clotting time (0.2-0.4% dye, out of range of detection of the coagulation analyzer) [s] | clot time (fibrinogen 10.0 mg/mL) [s] | clot time (fibrinogen 10.9 mg/mL) [s] | clot time (fibrinogen 12.0 mg/mL) [s] | clot time (fibrinogen 13.3 mg/mL) [s] | clot time (fibrinogen 17.1 mg/mL) [s] | clot time (fibrinogen 24.0 mg/mL) [s] | Effect on Clotting Time | clotting time (0.2% (w/v) dye, 1:20 dilution of fibrinogen, n=10) [s] | clotting time (0.3% (w/v) dye, 1:20 dilution of fibrinogen, n=10) [s] | clotting time (0.4% (w/v) dye, 1:20 dilution of fibrinogen, n=10) [s]
1 | Cc1cc(-c2ccc(/N=N/c3ccc4c(S(=O)(=O)O)cc(S(=O)(=O)O)c(N)c4c3O)c(C)c2)ccc1/N=N/c1ccc2c(S(=O)(=O)O)cc(S(=O)(=O)O)c(N)c2c1O [EB, Evans Blue] | > 70 | 19.4 ± 0.7 | 34.8 ± 4.7 | 43.6 ± 2.5 | > 70 | 50.9 ± 4.9 | 39.5 ± 3.3 | 31.7 ± 1.8 | 25.7 ± 1.0 | 14.8 ± 0.4 | 8.9 ± 2.3 | Increase |  |  | 
2 | Cc1cc(-c2ccc(/N=N/c3c(S(=O)(=O)O)cc4cc(S(=O)(=O)O)cc(N)c4c3O)c(C)c2)ccc1/N=N/c1c(S(=O)(=O)O)cc2cc(S(=O)(=O)O)cc(N)c2c1O [TB, Trypan Blue] | 46.3 ± 3.2 | 17.6 ± 0.3 | 18.1 ± 1.4 | 24.4 ± 2.3 |  | 15.7 ± 3.1 | 16.3 ± 0.4 | 11.6 ± 3.7 | 18.1 ± 0.4 | 7.4 ± 0.1 | 5.6 ± 0.1 | Increase | 26.2 ± 4.2 | 25.2 ± 2.9 | 29.8 ± 1.2
